Data published in ChEMBL document CHEMBL1134948, “The antimicrobial natural product chuangxinmycin and some synthetic analogues are potent and selective inhibitors of bacterial tryptophanyl tRNA synthetase” (Bioorg Med Chem Lett, 2002).
pIC50, pKi: −log10 of the molar value. Converted amounts (≈) assume the structure as drawn. “And” between values parts separate entries of the source, which are not always exact repeats. Identical values can stand only once. One block for each compound: values may come before it. The source made the active and inactive calls. The rule behind the calls is not given here.

Columns and labels:
[1] = Compound was tested for inhibitory activity against tryptophanyl tRNA synthetase in Staphylococcus aureus; assay type: nucleic-acid assay
[2] = tested on: Haemophilus influenzae; experiment: Minimum inhibitory concentration against Haemophilus influenzae Q1; assay type: functional
[3] = tested on: Moraxella catarrhalis; experiment: Minimum inhibitory concentration against Moraxella catarrhalis 1502; assay type: functional
[4] = tested on: Staphylococcus aureus; experiment: Minimum inhibitory concentration against Staphylococcus aureus oxford; assay type: functional
[5] = tested on: Nucleic Acid; experiment: Compound was tested for inhibitory activity against tryptophanyl tRNA synthetase in Staphylococcus aureus; NI means no inhibition uM; assay type: nucleic-acid assay
[6] = tested on: Moraxella catarrhalis; experiment: Minimum inhibitory concentration against Moraxella catarrhalis 1502 at a concentration of 32 ug/mL; assay type: functional, organism-based
[7] = tested on: Staphylococcus aureus; experiment: Minimum inhibitory concentration against Staphylococcus aureus Oxford at a concentration of 32 ug/mL; assay type: functional, organism-based
[8] = tested on: Haemophilus influenzae; experiment: Minimum inhibitory concentration against Haemophilus influenzae Q1 at a concentration of 32 ug/mL; assay type: functional, organism-based
[9] = tested on: Nucleic Acid; experiment: Compound was tested for inhibitory activity against tryptophanyl tRNA synthetase in Staphylococcus aureus Oxford; No significant inhibition up to 20 uM concentration; assay type: nucleic-acid assay
[10] = target: Nucleic Acid; experiment: Binding affinity against Tryptophanyl tRNA synthetase was determined; assay type: nucleic-acid assay, Staphylococcus aureus

SMILES: CC1c2c[nH]c3cccc(c23)SC1C=O (stereo unspecified)
pIC50 [1]: 7.05

SMILES: O=C([O-])[C@@H]1Sc2cccc3[nH]cc(c23)[C@@H]1CO.[Na+]
MIC [6]: inactive | MIC [7]: inactive | IC50 [5]: No inhibition | MIC [8]: inactive

SMILES: COC(=O)C1Sc2cccc3[nH]cc(c23)C1C (stereo unspecified)
Activity [9]: No significant inhibition up to 20 uM concentration

SMILES: CC1c2c[nH]c3cccc(c23)SC1C(N)=O (stereo unspecified)
Activity [9]: No significant inhibition up to 20 uM concentration

SMILES: C[C@H]1c2c[nH]c3cccc(c23)S[C@H]1C(=O)O [CHUANGXINMYCIN]
pIC50 [1]: 7.52 and 6.70 | pKi [10]: 7.70

Further lines, results first:

MIC [2]: 16 µg/mL (≈ 69.2 µM) | MIC [3]: 16 µg/mL (≈ 69.2 µM) | MIC [4]: 4 µg/mL (≈ 17.3 µM) | pIC50 [1]: 6.64
SMILES: O=C1OC[C@H]2c3c[nH]c4cccc(c34)S[C@@H]12

pIC50 [1]: 5.96
SMILES: CC1c2c[nH]c3cccc(c23)SC1C#N (stereo unspecified)

IC50 [5]: No inhibition
SMILES: CC1c2c[nH]c3cccc(c23)SC1c1nnn[nH]1 (stereo unspecified)

IC50 [5]: No inhibition
SMILES: CC1c2c[nH]c3cccc(c23)SC1C(=O)NO (stereo unspecified)
